Assay results: patent US10597388B2, “Pyridazinone herbicides” (FMC CORPORATION, priority 2014, dated 2020)

How the values were obtained:
Assay type in all cases: in vivo
[1] = tested on: chickweed (common chickweed, Stellaria media); experiment: Test C greenhouse herbicide test, postemergence
Procedure, shortened: (§1)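 Steps: pot plants in peat-based medium; spray postemergence at 1- to 4-leaf stage; hold in greenhouse 13 to 15 d; score visually against controls from 0 (no effect) to 100 (complete control).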

kochia (Kochia scoparia) = experiment: Test C greenhouse herbicide test, postemergence
Procedure, shortened: as §1

[2] = tested on: oat, wild (wild oat, Avena fatua); experiment: Test C greenhouse herbicide test, postemergence
Procedure, shortened: as §1

soybean (Glycine max) = experiment: Test C greenhouse herbicide test, pre- and postemergence
Excerpt: (§2) Seeds of plant species selected from blackgrass (Alopecurus myosuroides), ryegrass, Italian (Italian ryegrass, Lolium multiflorum), wheat (winter wheat, Triticum aestivum), galium (catchweed bedstraw, Galium aparine), corn (Zea mays), large crabgrass, large (large crabgrass, Digitaria sanguinalis), foxtail, giant (giant foxtail, Setaria faberii), johnsongrass (Sorghum halepense), lambsquarters (Chenopodium album), morningglory (Ipomoea coccinea), nutsedge, yellow (yellow nutsedge, Cyperus esculentus), pigweed (Amaranthus retroflexus), ragweed (common ragweed, Ambrosia elatior), soybean (Glycine max), barnyardgrass (Echinochloa crus-galli), oilseed rape (Brassica napus), waterhemp (common waterhemp, Amaranthus rudis), and velvetleaf (Abutilon theophrasti) were planted into a blend of loam soil and sand and treated preemergence with test chemicals formulated in a non-phytotoxic solvent mixture which included a surfactant.
(§3) At the same time, plants selected from these crop and weed species and also chickweed (common chickweed, Stellaria media), kochia (Kochia scoparia), and oat, wild (wild oat, Avena fatua), were planted in pots containing Redi-Earth® planting medium (Scotts Company, 14111 Scottslawn Road, Marysville, Ohio 43041) comprising spaghnum peat moss, vermiculite, wetting agent and starter nutrients and treated with postemergence applications of test chemicals formulated in the same manner. Plants ranged in height from 2 to 18 cm (1- to 4-leaf stage) for postemergence treatments. Treated plants and controls were maintained in a greenhouse for 13 to 15 d, after which time all species were compared to controls and visually evaluated. Plant response ratings, summarized in Table C, are based on a scale of 0 to 100 where 0 is no effect and 100 is complete control. A dash (-) response means no test result.

[3] = tested on: nutsedge, yellow (yellow nutsedge, Cyperus esculentus); experiment: as above
Excerpt: as §2, §3

[4] = tested on: johnsongrass (Sorghum halepense); experiment: as above
Excerpt: as §2, §3

[5] = tested on: ducksalad (Heteranthera limosa); experiment: Test B flooded paddy test; settings: 250 g ai/ha, Flood; visual rating on scale of 0 to 100 where 0 is no effect and 100 is complete control; 13 to 15 d after treatment
Procedure, shortened: (§4)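 Plants grown to the 2-leaf stage. At treatment, pots were flooded to 3 cm above the soil, compound was applied directly to the paddy water, and that depth was held throughout. After 13 to 15 d in the greenhouse, response was rated visually against controls on a 0 (no effect) to 100 (complete control) scale.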

[6] = tested on: sedge, umbrella (small-flower umbrella sedge, Cyperus difformis); experiment: Test B flooded paddy test; settings: 250 g ai/ha, Flood; visual rating on scale of 0 to 100 where 0 is no effect and 100 is complete control; 13 to 15 d after treatment
Procedure, shortened: as §4

rice (Oryza sativa) = experiment: Test B flooded paddy test; settings: 250 g ai/ha, Flood; visual rating on scale of 0 to 100 where 0 is no effect and 100 is complete control; 13 to 15 d after treatment
Procedure, shortened: as §4

[7] = tested on: barnyardgrass (Echinochloa crus-galli); experiment: Test B flooded paddy test; settings: 250 g ai/ha, Flood; visual rating on scale of 0 to 100 where 0 is no effect and 100 is complete control; 13 to 15 d after treatment
Procedure, shortened: as §4

[8] = tested on: galium (catchweed bedstraw, Galium aparine); experiment: Test A greenhouse herbicide test, postemergence; settings: for Galium plant response rating: 0 to 100 scale, 0 is no effect, 100 is complete control
Procedure, shortened: (§5)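 Visual injury score, 0 (no effect) to 100 (complete control), versus untreated controls roughly 10 d after postemergence spray; plants at one- to two-leaf stage, 2 to 10 cm tall, in loam soil and sand, kept in greenhouse.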

[9] = tested on: blackgrass (Alopecurus myosuroides); experiment: Test A greenhouse herbicide test, postemergence; settings: for Blackgrass plant response rating: 0 to 100 scale, 0 is no effect, 100 is complete control
Procedure, shortened: as §5

[10] = Postemergence, 31 g ai/ha, 0 to 100 scale (0 no effect, 100 complete control)
[11] = Postemergence, 125 g ai/ha, scale 0 to 100, 0 is no effect, 100 is complete control
[12] = Postemergence, 250 g ai/ha, scale 0 to 100, 0 no effect, 100 complete control, 13 to 15 d
[13] = postemergence, 62 g ai/ha, scale 0 to 100, 0 no effect, 100 complete control
[14] = Preemergence, 62 g ai/ha, scale 0 to 100, 0 is no effect, 100 is complete control
[15] = Preemergence, 125 g ai/ha, scale 0 to 100, 0 is no effect, 100 is complete control
[16] = Preemergence, 250 g ai/ha, scale 0 to 100, 0 no effect, 100 complete control
[17] = Preemergence, 31 g ai/ha, scale 0 to 100, 0 is no effect, 100 is complete control
[18] = 125 g ai/ha, visual rating after approx. 10 d, 0 to 100 scale (0 no effect, 100 complete control)

For `Cc1ccc2ccccc2c1-c1c(O)c(I)nn(C)c1=O` [Compound 29], the “Chickweed plant response rating” value [1, 10] was 95, the “Plant response rating, Chickweed” value [1, 11] was 100 and the “Plant response rating, Chickweed” value [1, 12] was 100. For the same compound, the “Chickweed plant response rating” value [1, 13] was 95, the “Kochia plant response rating” value (kochia (Kochia scoparia); [10]) was 60 and the “Plant response rating, Kochia” value (kochia (Kochia scoparia); [11]) was 75. For the same compound, the “Plant response rating, Kochia” value (kochia (Kochia scoparia); [12]) was 85, the “Kochia plant response rating” value (kochia (Kochia scoparia); [13]) was 60 and the “Oat, Wild plant response rating” value [2, 10] was 60. The “Plant response rating, Oat, Wild” value [2, 11] was 85, the “Plant response rating, Oat, Wild” value [2, 12] was 95 and the “Oat, Wild plant response rating” value [2, 13] was 55. The “Soybean plant response rating” value (soybean (Glycine max); [10]) was 0, the “Plant response rating, Soybean” value (soybean (Glycine max); [11]) was 20 and the “Plant response rating, Soybean” value (soybean (Glycine max); [12]) was 25. For the same compound, the “Plant response rating, Soybean” value (soybean (Glycine max); [14]) was 0, the “Plant response rating, Soybean” value (soybean (Glycine max); [15]) was 0 and the “Soybean plant response rating” value (soybean (Glycine max); [16]) was 0. For the same compound, the “Soybean plant response rating” value (soybean (Glycine max); [13]) was 10, the “Nutsedge, Yellow plant response rating” value [3, 10] was 25 and the “Plant response rating, Nutsedge, Yellow” value [3, 12] was 75. For the same compound, the “Plant response rating, Nutsedge, Yellow” value [3, 17] was 15, the “Plant response rating, Nutsedge, Yellow” value [3, 14] was 80 and the “Plant response rating, Nutsedge, Yellow” value [3, 15] was 85. For the same compound, the “Nutsedge, Yellow plant response rating” value [3, 16] was 85, the “Nutsedge, Yellow plant response rating” value [3, 13] was 35 and the “Johnsongrass plant response rating” value [4, 10] was 0. For the same compound, the “Plant response rating, Johnsongrass” value [4, 12] was 25, the “Plant response rating, Johnsongrass” value [4, 17] was 10 and the “Plant response rating, Johnsongrass” value [4, 14] was 5. The “Plant response rating, Johnsongrass” value [4, 15] was 25, the “Johnsongrass plant response rating” value [4, 16] was 20 and the “Johnsongrass plant response rating” value [4, 13] was 5. For the same compound, the “Plant response rating, Ducksalad” value [5] was 55, the “Plant response rating, Sedge, Umbrella” value [6] was 60 and the “Plant response rating, Rice” value (rice (Oryza sativa)) was 0. For the same compound, the “Plant response rating, Barnyardgrass” value [7] was 0, the “Plant response rating, Galium” value [8, 18] was 90 and the “Galium plant response rating” value ([8]; 500 g ai/ha) was 90. The “Plant response rating, Blackgrass” value [9, 18] was 70 and the “Blackgrass plant response rating” value ([9]; 500 g ai/ha) was 80.

For `CCc1ccc2ccccc2c1-c1c(O)c(C)nn(C)c1=O` [Compound 32], the “Chickweed plant response rating” value [1, 10] was 90, the “Plant response rating, Chickweed” value [1, 11] was 100 and the “Plant response rating, Chickweed” value [1, 12] was 100. For the same compound, the “Chickweed plant response rating” value [1, 13] was 95, the “Kochia plant response rating” value (kochia (Kochia scoparia); [10]) was 50 and the “Plant response rating, Kochia” value (kochia (Kochia scoparia); [11]) was 90. The “Plant response rating, Kochia” value (kochia (Kochia scoparia); [12]) was 95, the “Kochia plant response rating” value (kochia (Kochia scoparia); [13]) was 50 and the “Oat, Wild plant response rating” value [2, 10] was 70. For the same compound, the “Plant response rating, Oat, Wild” value [2, 11] was 100, the “Plant response rating, Oat, Wild” value [2, 12] was 100 and the “Oat, Wild plant response rating” value [2, 13] was 90. The “Soybean plant response rating” value (soybean (Glycine max); [10]) was 15, the “Plant response rating, Soybean” value (soybean (Glycine max); [11]) was 30 and the “Plant response rating, Soybean” value (soybean (Glycine max); [12]) was 35. The “Plant response rating, Soybean” value (soybean (Glycine max); [14]) was 10, the “Plant response rating, Soybean” value (soybean (Glycine max); [15]) was 40 and the “Soybean plant response rating” value (soybean (Glycine max); [16]) was 55. The “Soybean plant response rating” value (soybean (Glycine max); [13]) was 25, the “Nutsedge, Yellow plant response rating” value [3, 10] was 55 and the “Plant response rating, Nutsedge, Yellow” value [3, 11] was 80. For the same compound, the “Plant response rating, Nutsedge, Yellow” value [3, 12] was 85, the “Plant response rating, Nutsedge, Yellow” value [3, 17] was 25 and the “Plant response rating, Nutsedge, Yellow” value [3, 14] was 45. The “Plant response rating, Nutsedge, Yellow” value [3, 15] was 45, the “Nutsedge, Yellow plant response rating” value [3, 16] was 60 and the “Nutsedge, Yellow plant response rating” value [3, 13] was 80. The “Johnsongrass plant response rating” value [4, 10] was 5, the “Plant response rating, Johnsongrass” value [4, 11] was 15 and the “Plant response rating, Johnsongrass” value [4, 12] was 35. The “Plant response rating, Johnsongrass” value [4, 17] was 0, the “Plant response rating, Johnsongrass” value [4, 14] was 0 and the “Plant response rating, Johnsongrass” value [4, 15] was 10. The “Johnsongrass plant response rating” value [4, 16] was 45, the “Johnsongrass plant response rating” value [4, 13] was 25 and the “Plant response rating, Ducksalad” value [5] was 0. The “Plant response rating, Sedge, Umbrella” value [6] was 0, the “Plant response rating, Rice” value (rice (Oryza sativa)) was 0 and the “Plant response rating, Barnyardgrass” value [7] was 0. The “Galium plant response rating” value ([8]; 1000 g ai/ha) was 100 and the “Blackgrass plant response rating” value ([9]; 1000 g ai/ha) was 90.
